Assay results reported in US20250066423A1, “SESTRIN-MAPK COMPLEX INHIBITORS” (Sentcell Ltd, priority 2021, published 2025).
Peptide text beside a SMILES is read from it.

Key:
[1] = system: telomere extension in T cells exposed to APCs; test: Telomere length quantification assay (qPCR); assay type: cell-based, human; conditions: 5 donors
Excerpt: FIG. 23 illustrates live transfer of telomeres from APC to T cells in the presence of DOS. (A, left): T cells showing baseline fluorescence in the channel of Tel C; (A, middle): T cells treated with DOS cultured with APC; (A, right): T cells co-cultured with APC, in the absence of DOS. DOS enhances telomere transfer by ˜2 fold. Representative of 3 experiments. (B): Telomere extension was quantified by qPCR. Synapse-driven telomere extension (Akb) in T cells exposed to APCs and treated with or without DOS46L. Results from 5 donors are shown. […] Mann-Whitney was used. *p<0.05.
• 1. CD4− and CD4+ cells were purified from PBMC using appropriate microbead kit (Miltenyi) • 2. CD4+ cells were then used to purify CD27− and CD28− cells by using Miltenyi purification kits. • 3. A pellet of CD4− and CD4+/CD27−/CD28− cells were frozen. • 4. 4*10^6 CD4− were mixed with 1*10^6 CD4+/CD27−/CD28− cells in presence or not of DOS 46L 10 μM. • 14. The mixed cells were stimulated o.n. with a mix 1:1 of CMV and EBV • 15. The day after, CD4− cells were detached from conjugates with CD4+/CD27−/CD28− cells with a syringe by using cold PBS • 5. CD4− were then purified from CD4+ cells by using Miltenyi purification kits. • 16. CD4− and CD4+ cell pellets post conjugate were then frozen. • 17.

[2] = system: sMAC signalling (sestrin 1, 2 and 3 expression, AMPK and MAPK phosphorylation); test: Immunoblot of sMAC signalling in CD4+ T cells treated with DOS compounds (heat-map); assay type: cell-based, human
Protocol: CD4+ T cells were isolated from PBMCs from healthy donors, treated with DOS compounds for 4 hours and harvested for immunoblot analysis. The heat-map of Sestrin 1, Sestrin 2, Sestrin 3, p-mTOR1, p-JNK, p-AMPK, p-ERK1/2, and p-p38, represents the mean of three to nine experiments. Histone 3 was used as a control.
• 1. CD4+ cells were separated from PBMC using appropriate microbeads kit (Miltenyi) • 2. Cells were resuspended in whole RPMI medium and plated in the 24-multiwell plate • 3. Then activated for 4 hrs with DOS compounds • 4. Cells were then harvested, washed with PBS and resuspended in lysis buffer (RIPA with […]) • 5. The cell-lysis mix was incubated for 20 mins on ice • 6. Samples were centrifuged for 20 mins at the max speed • 7. The supernatant was collected and Lemmli buffer+β-Mercaptoethanol was added • 8. Samples were then boiled for 5 mins at 95° C. • 9. Samples were loaded on the polyacrylamide gel and left to run in TRIS-Glycine-SDS running buffer • 10. Once the run was completed the proteins were transferred from the gel to the nitrocellulose membrane by using the Trans-Blot machine (Biorad) • 11. Membrane was washed with 0.1% Tween-TBS buffer and blocked in 5% non-fat milk for 1 hr • 12. Followed incubation with the primary antibody o.n. • 13. The day after, the membrane was washed with 0.1% Tween-TBS buffer for three times for at least 30 mins each • 14. Secondary antibody was then added for 1h • 15. The membrane was the washed with 0.1% Tween-TBS buffer for three times for at least 30 mins each • 16. The signal was developed using ECL solution
This was shown by downregulation of sestrin 1, 2 and 3 expression, and AMPK and MAPK phosphorylation.

[3] = system: T cells (senescent CD3+ CD4+ CD27− CD28− population); conditions: DOS-FITC 10 μM, 4 hrs
Protocol: (A-B) CD4+ T cells were isolated from peripheral blood mononuclear cells (PBMCs) from healthy donors and treated with DOS compounds. (A) Representative confocal images of CD4+ T cells stained with DOS-FITC and CD3-AF594. (B) Quantification of DOS46L penetration by flow cytometry in CD4+ CD27-CD28-cells (Tsen) and in CD4+CD27+CD28+ (Terl).
Purified T cells were plated at the concentration 1*10^6 cell/well in 24 well plate • 2. Cells were treated with 10 μM of DOS-FITC for 4 hrs • 3. Then collected and centrifuged at 500 g for 5 mins • 4. Washed two times with ice-cold PBS • 5. Cells were resuspended in 200 ul of PBS and plated in a pre-treated coverslip with poly-lysine • 6. Cells were fixed with 4% of formaldehyde in ice for 20 mins • 7. Washed three times with PBS • 8. Blocked with PBS-BSA 5% • 9. Cells were then incubated with primary antibody (anti-CD3 1:100) overnight at 4 C • 10. Washed three times with PBS • 11. Then incubated with secondary antibody (anti-mouse conjugated with AF-594; 1:250) for 1 hr at room temperature • 12. Washed three times with PBS 13. Cells were permeabilized with Triton 0.25% in PBS for 2 mins • 14. Followed incubation with antibody anti-KDEL (Abcam) and anti-sestrin 2 (Gentex) diluted 1:100 at 4 C over-night • 15. Washed for three times with PBS • 16. […]

[4] = target: T1, recombinant sestrin 3 (Homo sapiens, UniProt P58005); test: Streptavidin pull-down of biotinylated DOS46L with flag recombinant sestrins; assay type: binding; conditions: in vitro
T1 sequence (P58005 1-492): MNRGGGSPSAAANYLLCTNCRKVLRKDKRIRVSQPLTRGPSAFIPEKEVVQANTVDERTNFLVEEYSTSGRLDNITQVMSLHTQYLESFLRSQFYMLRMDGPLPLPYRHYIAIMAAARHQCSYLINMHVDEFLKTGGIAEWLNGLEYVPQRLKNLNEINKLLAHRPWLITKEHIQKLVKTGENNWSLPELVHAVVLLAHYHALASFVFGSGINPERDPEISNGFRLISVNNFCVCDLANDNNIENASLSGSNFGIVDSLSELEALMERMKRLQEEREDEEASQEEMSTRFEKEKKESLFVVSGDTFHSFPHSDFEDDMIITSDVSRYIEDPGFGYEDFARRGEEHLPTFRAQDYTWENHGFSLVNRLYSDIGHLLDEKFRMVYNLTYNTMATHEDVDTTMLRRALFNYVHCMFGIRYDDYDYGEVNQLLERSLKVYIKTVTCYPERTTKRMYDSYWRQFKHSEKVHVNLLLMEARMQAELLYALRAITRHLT
Protocol: However, it should be considered that direct binding is not a pre-requisite for DOS sestrin inhibitory function.
(A) Biotinylated DOS46L was mixed with flag recombinant Sestrins, immunoprecipitated with streptavidin and immunoblotted with flag Sestrins. […] Representative images from three experiments are shown. […] (D) DOS46L binds to the entire sMAC complex in CD4 T cells. CD4+ T cells were isolated from PBMCs from healthy donors and treated with biotinylated DOS46L compound (10 uM) for 4 hours. Cells were harvested for immunoprecipitation analysis.

[5] = system: H1N1; test: Autoptic lung analysis and viral clearance (qPCR of viral protein PA) in lungs of old mice; conditions: mouse, in vivo
[6] = system: H1N1 PR8/54; design: species or system mice; conditions: mouse, in vivo
[7] = system: CD95+ CD62L+ CD44− CD4+ memory T cells; assay type: in vivo, mice; conditions: examined up to 8 weeks

Compound: CC[C@H](C)[C@@H]1NC(=O)[C@H](Cc2ccccc2)NC(=O)[C@H](C)NC(=O)[C@H](C(C)C)NC(=O)[C@@H]2CCCN2C1=O [DOS46L] (cyclo(AFIPV))
- synapse-driven telomere extension [1]: restoration in telomere length is similar to the extension observed in young T cells
- effectiveness at sMAC inactivation among all of the DOS compounds tested [2]: most effective
- sMAC pathway silenced [2]: 90%
- sestrins inhibited (pan or selective inhibitor) ([2]; CD4+ T cells, 4 hours, FIG. 5 heat-map): inhibit all three sestrins
- cell penetration [3]: able to penetrate T cells
- direct binding to recombinant sestrin 3 [4]: does not directly bind
- lung necrosis [5]: protection from lung necrosis
- protection from lethal viral challenge without vaccine [6]: prevented death
- stem-like memory T cell generation [7]: permanent stem-like generation
